Structures are written as SMILES.

We go through 25 compounds from ChEMBL document CHEMBL5241136, “Design, synthesis and evaluation of heterocyclic 2-phenylacetate derivatives as water-soluble rapid recovery hypnotics” (Bioorg Med Chem Lett, 2023).

A short description of series [1]: Toxicity in mouse assessed as lethal dose. The conditions noted are these: in vivo.
Series [2] is described as follows: n-Octanol/water partition coefficient, logP of the compound. The class given is physicochemical.
The target in series [3] is GABA-A receptor; anion channel (Homo sapiens) (UniProt P14867+P47870+P18507+P28472+P48169+Q99928+Q9UN88+P34903+O00591+O14764+Q8N1C3+P18505+P78334+P47869+P31644+Q16445). Nature of the series: Inhibition of GABAA receptor (unknown origin) at 50 uM by radioligand receptor binding assay relative to control. The series is classed as protein-complex assay.
Series [4] in a line: Therapeutic index, ratio of LD50 for toxicity in mouse to HD50 for anesthetic activity in mouse assessed as concentration required to induce hypnotic effect. The note with it: read-out: TI.
Series [5] relates to Mus musculus. Nature of the series: Anesthetic activity in mouse assessed as concentration required to induce hypnotic effect. The class given is functional.
Series [6] has as its system Oryctolagus cuniculus. The series can be described thus: Anesthetic activity in rabbit assessed as time duration of loss of righting reflex. The class given is functional.
The subject of series [7] is Mus musculus. Nature of the series: Anesthetic activity in mouse assessed as time duration of loss of righting reflex. The class given is functional.
Series [8] deals with Rattus norvegicus. The series can be described thus: Anesthetic activity in rat assessed as time to behavioral recovery. The series is classed as functional.
Series [9] concerns Mus musculus. Nature of the series: Anesthetic activity in mouse assessed as time to behavioral recovery. The class given is functional.
A short description of series [10]: Toxicity in rabbit assessed as lethal dose. Set-up: species or system Oryctolagus cuniculus. The note with it: in vivo.
In series [11] the test system is Oryctolagus cuniculus. The series can be described thus: Anesthetic activity in rabbit assessed as time to walk. The class given is functional.
In series [12] the test system is Rattus norvegicus. The series can be described thus: Anesthetic activity in rat assessed as time to walk. The series is classed as functional.
Series [13] has as its system Oryctolagus cuniculus. The series can be described thus: Anesthetic activity in rabbit assessed as onset time. The class given is functional.
The test system of series [14] is Mus musculus. The series can be described thus: Anesthetic activity in mouse assessed as time to walk. The series is classed as functional.
Series [15] concerns Rattus norvegicus. The series can be described thus: Anesthetic activity in rat assessed as onset time. The class given is functional.
In series [16] the test system is Mus musculus. The series can be described thus: Anesthetic activity in mouse assessed as onset time. The series is classed as functional.
Series [17] can be described thus: Therapeutic index, ratio of LD50 for toxicity in rabbit to HD50 for anesthetic activity in rabbit assessed as concentration required to induce hypnotic effect. The conditions noted are these: read-out: TI.
Series [18] relates to Oryctolagus cuniculus. Nature of the series: Anesthetic activity in rabbit assessed as concentration required to induce hypnotic effect. The series is classed as functional.
Setting [19] is: n-octanol/water, read-out: logP.

As usually defined, the LD50 is the dose expected to kill half of the subjects tested. By logP is commonly meant a log measure of how a compound divides between an organic and an aqueous phase. Broadly, the inhibition is the relative decrease from the control value, in per cent. The low end stands for little suppression, the high end for strong suppression. As usually defined, the ED50 is the dose at which the effect has come halfway, by size or by number of responders. Regarding `CCOc1cc(CC(=O)OC(C)C)ccc1OCC(=O)N1CCN(C(=O)OC(C)(C)C)CC1`, the LD50 in series [1] came out at 258 mg/kg. The logP in series [2] (setting [19]) stood at 2.1. This compound also registered an inhibition in series [3] of 29.3%. The selectivity ratio in [4] was 7. Moreover, the ED50 in the series with Mus musculus [5] came out at 36.8 mg/kg.
For `CCOc1cc(CC(=O)OC(C)C)ccc1OCC(=O)N1CCNCC1`, the logP in [2] (setting [19]) came to 1.5. The compound also displayed an inhibition in series [3] of 36.4%. Moreover, the ED50 in the series on Mus musculus [5] was greater than 100 mg/kg.
For the compound `CCCOC(=O)Cc1ccc(OCC(=O)N2CCOCC2)c(OC)c1`, the LD50 in series [1] amounted to 339 mg/kg. Besides, the logP in [2] (setting [19]) was found to be 1.5. The inhibition in series [3] turned out to be 46.3%. The selectivity ratio in series [4] is 6.4. In addition, the ED50 in the series with Mus musculus [5] was 52.9 mg/kg.
Take `COc1cc(CC(=O)OC(C)C)ccc1OCC(=O)N1CCOCC1`: the LD50 in [1] worked out at 276 mg/kg. Moreover, in series [2] (setting [19]), the logP was 1.3. In addition, the inhibition in series [3] was 35.7%. In series [4], the selectivity ratio worked out at 5.9. The ED50 in the series on Mus musculus [5] was 46.8 mg/kg.
Consider `COc1cc(CC(=O)OC(C)C)ccc1OCC(=O)N1CCNCC1`, for which the logP in [2] (setting [19]) came to 1.8. Moreover, the inhibition in series [3] turned out to be 57.8%. Also, the ED50 in the series with Mus musculus [5] is greater than 100 mg/kg.
`CCCOC(=O)Cc1ccc(OCC(=O)N2CCCC2)c(OC)c1`: the logP in series [2] (setting [19]) was determined as 1.8. For the same compound, the inhibition in series [3] was 72.5%. Further, the 50% effective dose (ED50) in the series with Mus musculus [5] worked out at 64.2 mg/kg.
`CCOc1cc(CC(=O)OCC(F)(F)F)ccc1OCC(=O)N(CC)CC`: in series [2] (setting [19]), the logP was determined as 2.6.
Take `CCOC(=O)Cc1ccc(OCC(=O)N2CCNCC2)c(OCC)c1`: the logP in [2] (setting [19]) was determined as 2. The compound also returned an inhibition in series [3] of 65.2%. In addition, the ED50 in the series with Mus musculus [5] was greater than 100 mg/kg.
For `CCOC(=O)Cc1ccc(OCC(=O)N2CCCC2)c(OCC)c1`, in [2] (setting [19]), the logP turned out to be 2.1. In [3], this compound showed an inhibition of 26.5%. For the same compound, the ED50 with Mus musculus [5] came to 56 mg/kg.
`CC(C)c1cccc(C(C)C)c1O` [PROPOFOL]: the Time in the series on Oryctolagus cuniculus [6] is on record as 326.6 s; in the series on Mus musculus [7], 240.9 s; in the series on Rattus norvegicus [8], 335.8 s; with Mus musculus [9] it was 242.7 s; in the series on Oryctolagus cuniculus [11], 425.3 s; in the series on Rattus norvegicus [12], 286.5 s. For the same compound, the Time with Oryctolagus cuniculus [13] was found to be 21.7 s; in the series with Mus musculus [14] it was 46.5 s; in the series with Rattus norvegicus [15], 10.1 s; with Mus musculus [16], 8.1 s. In addition, in [10], the LD50 was determined as 20.2 mg/kg. Besides, the logP in series [2] (setting [19]) amounted to 4.2. In addition, the selectivity ratio in [4] was 5.1; in [17], 5.4. Besides, the ED50 in the series with Mus musculus [5] came to 11.9 mg/kg; in the series on Oryctolagus cuniculus [18] it was 3.7 mg/kg.
On to `CCOC(=O)Cc1ccc(OCC(=O)N2CCN(C(=O)OC(C)(C)C)CC2)c(OCC)c1`, for which the LD50 in [1] was 217 mg/kg. The logP in [2] (setting [19]) was 1.8. In series [3], this compound had an inhibition of 45.2%. Also, the selectivity ratio in [4] was 7.1. Moreover, the ED50 in the series on Mus musculus [5] came to 30.6 mg/kg.
In the same order, the values of `CCCOC(=O)Cc1ccc(OCC(=O)N2CCN(C(=O)OC(C)(C)C)CC2)c(OCC)c1` are 240 mg/kg, 2.3, 33.4%, 7.3 and 32.9 mg/kg.
Regarding `CCCOC(=O)Cc1ccc(OCC(=O)N2CCNCC2)c(OCC)c1`, in series [2] (setting [19]), the logP is 1.7. Also, the inhibition in [3] was determined as 23.1%. The ED50 with Mus musculus [5] was greater than 100 mg/kg.
For `COc1cc(CC(=O)OC(C)C)ccc1OCC(=O)N1CCN(C(=O)OC(C)(C)C)CC1`, the LD50 in [1] amounted to 264 mg/kg. The logP in series [2] (setting [19]) was found to be 1.8. This compound came in with an inhibition in [3] of 69.7%. Also, in [4], the selectivity ratio worked out at 6.9. Also, the ED50 in the series on Mus musculus [5] was found to be 38.2 mg/kg.
For `CCCOC(=O)Cc1ccc(OCC(=O)N2CCN(C(=O)OC(C)(C)C)CC2)c(OC)c1` the same measures were 340 mg/kg, 1.9, 36.1%, 7.8 and 43.6 mg/kg.
For `CCOC(=O)Cc1ccc(OCC(=O)N2CCN(C(=O)OC(C)(C)C)CC2)c(OC)c1` the same measures were 257 mg/kg, 1.5, 55.2%, 7.3 and 35.2 mg/kg.
For the compound `CCOC(=O)Cc1ccc(OCC(=O)N2CCOCC2)c(OC)c1`, in series [1], the LD50 came out at 278 mg/kg. Besides, the logP in series [2] (setting [19]) was found to be 1.4. In addition, the inhibition in series [3] is 52.9%. Moreover, the selectivity ratio in series [4] is 6.2. In addition, the ED50 in the series with Mus musculus [5] was 44.8 mg/kg.
In the case of `CCOC(=O)Cc1ccc(OCC(=O)N2CCNCC2)c(OC)c1`, the logP in series [2] (setting [19]) was 1.5. Moreover, the inhibition in series [3] came to 44.5%. The ED50 in the series with Mus musculus [5] is greater than 100 mg/kg.
For `CCOC(=O)Cc1ccc(OCC(=O)N2CCCC2)c(OC)c1` the same measures were 1.3, 48.8% and 56.8 mg/kg.
Turning to `CCCOC(=O)Cc1ccc(OCC(=O)N(CC)CC)c(OCC)c1` [AZD-3043], the Time in the series on Oryctolagus cuniculus [6] worked out at 221.6 s; with Mus musculus [7], 63.8 s; in the series with Rattus norvegicus [8] it was 56.9 s; in the series with Mus musculus [9], 89.6 s; with Oryctolagus cuniculus [11] it was 89.6 s; in the series on Rattus norvegicus [12], 38.4 s. For the same compound, the Time in the series with Oryctolagus cuniculus [13] was determined as 19.8 s; with Mus musculus [14] it was 22.9 s; with Rattus norvegicus [15] it was 12.4 s; with Mus musculus [16], 5.6 s. Also, the logP in series [2] (setting [19]) stood at 2.8. For the same compound, the ED50 came to 17.6 mg/kg in the series with Mus musculus [5] and 4.6 mg/kg in the series on Oryctolagus cuniculus [18].
Regarding `CCCOC(=O)Cc1ccc(OCC(=O)N2CCCC2)c(OCC)c1`, the logP in series [2] (setting [19]) is 2.3. The compound further yielded an inhibition in [3] of 47.8%. Besides, the ED50 in the series on Mus musculus [5] is 60.8 mg/kg.
The compound `CCOC(=O)Cc1cc(OCC)c(OCC(=O)N(CC)CC)cc1F` registered a logP in series [2] (octanol/water) of 2.1.
In the case of `CCCOC(=O)Cc1ccc(OCC(=O)N(CC)CC)c(OC)c1` [PROPANIDID], the Time is 265.4 s in the series with Oryctolagus cuniculus [6]; 89.6 s in the series with Mus musculus [7]; 79.9 s in the series with Rattus norvegicus [8]; 83.9 s in the series on Mus musculus [9]; 124.5 s in the series with Oryctolagus cuniculus [11]; 58.7 s with Rattus norvegicus [12]. Besides, the Time is recorded as 22.6 s in the series on Oryctolagus cuniculus [13], 56.3 s in the series with Mus musculus [14], 16.3 s in the series with Rattus norvegicus [15] and 6.7 s in the series with Mus musculus [16]. Besides, the ED50 with Mus musculus [5] was determined as 20.9 mg/kg; in the series on Oryctolagus cuniculus [18] it was 5.1 mg/kg.
On to `COc1cc(CC(=O)OC(C)C)ccc1OCC(=O)N1CCCC1`, for which the logP in series [2] (setting [19]) was found to be 1.9. The same compound came in with an inhibition in series [3] of 55.6%. Besides, in the series on Mus musculus [5], the ED50 came out at 59.9 mg/kg.
On to `CCCOC(=O)Cc1ccc(OCC(=O)N2CCNCC2)c(OC)c1`, for which the logP in series [2] (setting [19]) came out at 1.7. This compound yielded an inhibition in series [3] of 38.6%. For the same compound, the ED50 in the series on Mus musculus [5] is greater than 100 mg/kg.
